# According to patent US5968526A, “T cell epitopes of the major allergens from Dermatophagoides (house dust mite)” (Immulogic Pharamaceutical Corporation, priority 1995, dated 1999):
# Legend:
# [1] = tested on: T cell cultures reactive with Der p I from house dust mite-allergic subjects; test: secondary T cell proliferation assay, Group I (Der p I) overlapping and candidate/unique peptides; percent of T cell reactivity; assay type: cell-based, human; settings: patient 1733; highest S.I. ≥2.0 recorded
# Text: To determine whether a peptide (candidate peptide) or a combination of candidate peptides are likely to comprise a sufficient percentage of the T cell reactivity of house dust mite protein allergens, to induce T cell nonresponsiveness in a substantial percentage of a population of individuals sensitive to house dust mite allergen, an algorithm can be used. In accordance with one such algorithm, a set of overlapping peptides is produced by systematically dividing the protein allergen(s) of interest into al least two overlapping peptide regions of desired lengths (e.g., of about 12-30 amino acid residues in length, preferably not longer than about 25 amino acid residues in length with about 5-15 amino acid residues of overlap). This division into peptide regions can be arbitrary, can be made according to an algorithm, or can be wholly or partially based on regions of house dust mite Group I and/or Group II protein allergens known to comprise at least one T cell epitope. Preferably, at least 50% of the entire house dust mite protein allergen sequence and more preferably, the entire house dust mite protein allergen sequence is divided into two or more peptides. A human T cell stimulation index is determined for each of the peptides in an in vitro T cell proliferation assay as described herein for each individual tested in a population of individuals sensitive to the protein antigen. For example both WO93/08279 and WO94/24281 disclose T cell studies with overlapping peptides derived from Der p I, Der p II, Der f I and Der f II. A candidate peptide or combination of candidate peptides is selected based, at least in part, on the mean human T cell stimulation index of the candidate peptide in the set of peptides tested and the positivity index of the candidate peptide in the set of peptides tested (see, FIGS. 3 and 4). The human T cell stimulation index for the candidate peptide(s) is summed. For each individual, the human T cell stimulation index for the candidate peptide(s) is divided by the sum of the human T cells stimulation indices of the remaining peptides in the set of peptides tested to determine a percent of T cell reactivity as shown below:
# Alternatively, the presence of T cell epitopes in the candidate peptide dependent on amino acids residues in an overlapping peptide located at either the N-terminus or C-terminus of the candidate peptide in the amino acid sequence of the protein antigen, but which epitopes are not present in the candidate peptide can be considered in calculating the percent of T cell reactivity in the candidate peptide by use of the following formula: [formula]
# In this formula, "NT flanking peptide" refers to a peptide which comprises amino acid residues which overlap with amino acid residues located at the N-terminus of the candidate peptide in the amino acid sequence of the protein antigen from which the peptide is derived; "CT flanking peptide" refers to a peptide which comprises amino acid residues which overlap with amino acid residues located a the C-terminus of the candidate peptide in the amino acid sequence of the protein antigen from which the peptide is derived. In this calculation stimulation indices for the candidate peptide, the N-terminal flanking peptide and the C-terminal flanking peptide are added and divided by the sum total of the stimulation indices for the entire set of overlapping peptides obtain a percent of T cell reactivity for the candidate peptide. If a combination of two or more candidate peptides is selected each of which contains amino acid residues which overlap, this calculation cannot be used to determine a percent of T cell reactivity for each candidate peptide separately. However, a total percent of T cell reactivity for the combination of candidate peptides can be obtained. In this situation, the stimulation indices for all of the candidate peptides which overlap is included in the calculation. […]
# [2] = tested on: PBMC from mite-allergic patient; test: primary T cell (PBMC) proliferation, mite-allergic patient, tritiated thymidine; assay type: cell-based, human; settings: medium 1071 ± 30
# Summary of the method: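 Ficoll-purified PBMC (5×10^4/well, triplicate) from one mite-allergic donor cultured 7 days at 37 °C with graded concentrations of purified Der p I, Der p II or their peptides in RPMI-1640 plus 5% human AB serum. 1 μCi ^3H-thymidine added for 16 h; CPM counted, stimulation index = antigen CPM/medium-only CPM.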
# [3] = tested on: T cell lines primed in vitro to Der p I; test: secondary proliferation of Der p I-primed T cell lines (Examples V, VII, XI); assay type: cell-based, human; settings: 33 positive experiments
# Summary of the method: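 PBMC were primed with native or recombinant Der p I (10 or 20 μg/ml) for 7 days, then expanded with IL-2 and IL-4. Resting T cells (2×10^4) were cultured 3 days with irradiated autologous EBV-B cells or PBMC and titrated protein or peptides, then pulsed 16 h with 1 μCi ³H-thymidine. S.I. was peak-response CPM over medium-only CPM, with S.I. ≥2.0 scored positive.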
# [4] = tested on: T cell lines primed in vitro to Der f I; test: secondary proliferation of Der f I-primed T cell lines (Examples VI, VII, XI); assay type: cell-based, human; settings: Der f I primed; 8 positive experiments; FIG. 8
# Summary of the method: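 PBMC from house dust mite-allergic patients were primed in vitro with recombinant or affinity-purified Der f I at 20 μg/ml (or 10 μg/ml), then rechallenged with Der f I peptides. Antigen-presenting cells were x-irradiated autologous PBMC (3500 Rads) or EBV-transformed B cells (25,000 Rads). Read-out was T cell proliferation.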
# human IgE = test: direct binding ELISA of IgE to mite allergen proteins and peptides; settings: data not shown
# Experimental: The coating antigens were removed and the wells are blocked with 0.5% gelatin in PBS, 300 μl/well for 2 hours at room temperature. Pooled human plasma (a mix of plasma samples from 20 patients that were skin test positive for commerical mite extract) was serially diluted with PBS-Tween 20 (PBS with 0.05% nonionic detergent Tween-20 Sigma, St. Louis, Mo.) and 100 μl/well a.backslash.was added and incubated overnight at 4° C. (plasma dilutions were tested in duplicate). The second antibody (biotinylated goat anti-Human IgE, 1:1000, Kirkegaard & Perry Laboratories Inc, Gaithersburg, Md.), was added at 100 μl/well for one hour at room temperature. This solution was removed and streptavidin-HRPO, 1:10000, (Southern Biotechnology Associates, Inc., Birmingham, Ala.) was then added at 100 μl/well for one hour at room temperature (all wells are washed three times with PBS-Tween between each incubation step). TMB Membrane Peroxidase Substrate system (Kirkegaard & Perry Laboratories) was freshly miced, and added at […]. The color was allowed to develop for 2-5 minutes. The reaction was stopped by the addition of […] of 1M phosphoric acid. Plates were read on a Microplate IL310 Autoreader (Biotech Instruments, Winooski, Vt.) with a 450 nm filter. The absorbance levels of duplicate wells were averaged. The order of coating antigens listed vertically in these figure legends corresponds in orDer from left to right to the coating antigens listed for each histogram.
# The antigen preparation that was used as a positive control was a mixture of the four major biochemically purified mite allergens (term PMA for Purified Mite Allergen); Der f I, Der f II, Der p I and Der p II. The stock was generated at a concentration of 100 μgs of each protein per millimeter or 400 μgs total protein/ml. This preparation was used on each coated ELISA plate.
# mast cells or basophils = test: histamine release; assay type: cell-based, human; settings: data not shown
# Experimental: To determine whether a peptide which binds IgE results in the release of mediators, a histamine release assay can be performed using standard reagents and protocols obtained for example, from Amac, Inc. (Westbrook, Me.). Briefly, a buffered solution of a peptide to be tested is combined with an equal volume of whole heparinized blood from an allergic subject. After mixing and incubation, the cells are pelleted and the supernatants are processed and analyzed using a radioimmunoassay to determine the amount of histamine released.
# pH-solubility profile = assay type: physicochemical; settings: at a pH in the range pH 6 to pH 8
# Experimental: (§1) 50 mM sodium phosphate stock solutions:
# (§2) Stock solution A: 0.66 g […] of monobasic sodium phosphate monohydrate U.S.P. and 50 mg EDTA disodium dihydrate, U.S.P. were dissolved in 100 mL of WFI. The solution was filtered through a 0.2 micron filter
# (§3) Stock solution B: 0.71 g […] of dibasic sodium phosphate U.S.P. were disolved in 100 ml WFI. The solution was filtered through a 0.2 micron filter.
# (§4) 2. Initial peptide dispersions
# (§5) Dispersion A: 3.0 mg of each candidate peptide,DPI-21.2 (SEQ. ID. NO. 28), DFI-22.2 (SEQ. ID. NO. 93), DFI-23.31(SEQ. ID. NO. 165), DFI-26.6 (SEQ. ID. NO. 168), DPII-20.9 (SEQ. ID. NO. 169), DPII-22.14 (SEQ. ID. NO. 180) and DPII-25.15 (SEQ. ID. NO. 188), was weighed out separately and placed in separate 1.5 mL eppendoff vials with 600 μL of stock solution A. The composition was agitated for 1 seconds to mix well.
# as §5, with “Dispersion B:” for “Dispersion A:”, “each peptide, DPI-21.2” for “each candidate peptide,DPI-21.2”, “solution B.” for “solution A.”, “The mixture” for “The composition”, “for 5” for “for 1”
# (§6) Dispersions A and B were sonicated for 2 minutes for good homogeneity. A small volume was pipetted from each dispersion into a labeled eppendoff vial according to the following volume ratio:
# (§7) The resultant solutions/suspensions were stored in the dark at about 22° C.±2 for 24 hours without agitation. The solutions were filtered and filtrates were analyzed for pH and peptide concentration.
# (§8) The concentration of filtered peptide solutions was determined by HPLC analysis. In this experiment, the solubility of peptide at each pH is defined as the amount of peptide remaining in solution after filtration through a membrane filter having a 0.2 micrometer pore size. The extent of degradation of peptides was estimated by calculating the percent of total degradant peak area over the total peak area.
# The pH values with respect to the solubility values was plotted and are shown in FIG. 37 for each respective peptide. As shown in the solubility curve for each peptide as represented in FIG. 37, peptides DPI-21.2 (SEQ. ID. NO. 28), DFI-22.2 (SEQ. ID. NO. 93), DFI-23.31 (SEQ. ID. NO. 165), DFI-26.6 (SEQ. ID. NO. 168), DPII-20.9 (SEQ. ID. NO. 169), DPII-22.14 (SEQ. ID. NO. 180) and DPII-25.15 (SEQ. ID. NO. 188) are each soluble at greater than 3 mg/ml at a pH in the pH range of pH 6 to pH 8.
# [5] = pH-stability profile / solution stability (HPLC); assay type: physicochemical; settings: pH 6 to pH 8
# Experimental: as §1, §2, §3, §4, §5
# as §5, with “Dispersion B:” for “Dispersion A:”, “each peptide, DPI-21.2” for “each candidate peptide,DPI-21.2”, “solution B.” for “solution A.”, “The mixture” for “The composition”, “for 5” for “for 1”
# as §6, §7, §8
# The pH-stability profiles for each peptide DPI-21.2 (SEQ. ID. NO. 28), DFI-22.2 (SEQ. ID. NO. 93), DFI-23.31(SEQ. ID. NO. 165), DFI-26.6 (SEQ. ID. NO. 168), DPII-20.9 (SEQ. ID. NO. 169), DPII-22.14 (SEQ. ID. NO. 180) and DPII-25.15 (SEQ. ID. NO. 188) in equal concentration combination at 3, 2, and 1 mg/ml per peptide and prepared in duplicate as described above with one set stored at about 5° C. for 24 hours and one set stored at about 22° C.±2 for 24 hours, were calculated and tabulated as a function of the percentage of total of degradant peak area (FIG. 38).
substance,measurement,setting,value
DP I-10: Der p I peptide (QGVDYWIVRNSWDTNWGDNGYGYF),T cell stimulation index (S.I.),[1],0
same,CPM ± S.D.,[2]; 10 μg/ml,1936 ± 50 CPM
same,CPM ± S.D.,[2]; 30 μg/ml,3042 ± 89 CPM
same,CPM ± S.D.,[2]; 100 μg/ml,2644 ± 63 CPM
same,T cell reactivity,[3]; overlapping Der p I peptides,significant regions of T cell reactivity
DP I-14: Der p I peptide (QSCRRPNAQRFGISNYCQI),T cell stimulation index (S.I.),[1],2.3
same,T cell response to Der p I peptides,[4],respond significantly
DP I-15: Der p I peptide (RFGISNYCQIYPPNANKIREAL),T cell stimulation index (S.I.),[1],2.8
same,T cell response to Der p I peptides,[4],respond significantly
DP I-22.2: Der p I peptide (VAATESAYLAHRNQSLDLAEQELVD),T cell stimulation index (S.I.),[1],3.1
same,T cell response to selected Der p I peptides,[3]; FIG. 13,respond significantly
DP II-25.15: modified Der p II peptide; unique peptide (DEETVKVMGDDGVLACAIATHAKIRDEE),"IgE reactivity, candidate peptides",human IgE,negative
same,histamine release,mast cells or basophils,negative
same,solubility,pH-solubility profile,greater than 3 mg/ml
same,stability (in words),[5],acceptable solution stability
